Experimental findings from patent publication US9340537B2, “Benzamide derivatives for inhibiting the activity of ABL1, ABL2 and BCR-ABL1” (NOVATIS AG, priority 2012, dated 2016) are described below.

For experiment [1], the target named is T1, ABL1 (64-515) (Homo sapiens (Human), UniProt P00519). The experiment can be described thus: Radio ABL1 (64-515) radiometric filter-binding kinase assay. It is filed as biochemical. Particulars: 20 μM ATP.
Protocol: Pre-incubation of enzyme with compounds (when stated) was performed by exposing the enzyme to compounds prior to addition of the substrate mixture (ATP and/or peptide substrate). […] Filter-plates were washed 3× with 0.5% H3PO4, followed by addition of 30 μL scintillation cocktail (Microscint, Perkin Elmer) per well and then analysed in a TopCount NXT scintillation counter (Perkin Elmer). Results were expressed as IC50 values.
The next experiment concerns Ba/F3-BCR-ABL1-WT cells. Description: Proliferation assay Ba/F3-BCR-ABL1-WT cells. The experiment is classed as cell-based, murine. Particulars: Mus musculus; 48 hours, Britelite luminescence; read-out: Ba/F3-BCR-ABL1-WT IC50.
Experiment [2] relates to Ba/F3-BCR-ABL1-T315I cells. Description: Proliferation assay Ba/F3-BCR-ABL1-T315I cells. The experiment is classed as cell-based, murine. Particulars: Mus musculus; 48 hours, Britelite luminescence; read-out: Ba/F3-BCR-ABL1-T315I IC50.
Description: (§1) The murine bone marrow-derived cell line Ba/F3 was used to generate the appropriate cell line models. […] These cells are referred to as Ba/F3-WT.
(§2) To generate Ba/F3 cells that depend on BCR-ABL1 expression for growth and survival, Ba/F3 cells were engineered to express BCR-ABL1 using retroviral transduction with a MSCV based retroviral vector containing a p210 BCR-ABL1expression cassette. […] These cells are referred to as Ba/F3-BCR-ABL-WT. […] These cells are referred to as Ba/F3-BCR-ABL-T315I.
(§3) Ba/F3-WT cells were maintained in RPMI1640 media with L-glutamine, HEPES (Lonza), 10% FBS (Gibco) and 5 ng/ml IL-3 (Calbiochem). Ba/F3-BCR-ABL1-WT cells and Ba/F3-BCR-ABL1-T315I cells were maintained in RPMI1640 media with L-glutamine, HEPES (Lonza) and 10% FBS (Gibco).
(§4) For each cell line, the cell density was adjusted to 50 000 cells/mL and 50 μL (2500 cells) added per well of a 384-well assay plate.
(§5) Test compounds were resuspended in DMSO at a concentration of 10 mM. A serial three-fold dilution of each compound with DMSO was performed in 384-well plates using the Janus Liquid Dispenser (PerkinElmer). Compound was delivered to the assay plates containing 2500 cells in a 50 μL volume via Acoustic delivery from an ATS-100 (EDC).
(§6) Cells were incubated at 37° C. in a humidified environment with 5% carbon dioxide for 48 hours. Britelite plus solution (Perkin Elmer) was prepared according to the manufacturer's instructions and 25 μL added to each well of the assay plate. […] The degree of luminescence correlates with the number of cells in each well. The effect of each inhibitor concentration can therefore be calculated and IC50 values generated.
For experiment [3], the target named is T1, ABL1 (64-515). Description: Caliper ABL1 (64-515) microfluidic mobility shift kinase assay. The settings on record: read-out: Caliper ABL1 (64-515) IC50.
The next experiment has as its system BCR-ABL1+KCL-22 cells. The experiment can be described thus: Acquired resistance in BCR-ABL1+KCL-22 cells in vitro. It is filed as cell-based. The settings on record: single agent, cells treated every 3-4 days.

T1 sequence (P00519 64-515): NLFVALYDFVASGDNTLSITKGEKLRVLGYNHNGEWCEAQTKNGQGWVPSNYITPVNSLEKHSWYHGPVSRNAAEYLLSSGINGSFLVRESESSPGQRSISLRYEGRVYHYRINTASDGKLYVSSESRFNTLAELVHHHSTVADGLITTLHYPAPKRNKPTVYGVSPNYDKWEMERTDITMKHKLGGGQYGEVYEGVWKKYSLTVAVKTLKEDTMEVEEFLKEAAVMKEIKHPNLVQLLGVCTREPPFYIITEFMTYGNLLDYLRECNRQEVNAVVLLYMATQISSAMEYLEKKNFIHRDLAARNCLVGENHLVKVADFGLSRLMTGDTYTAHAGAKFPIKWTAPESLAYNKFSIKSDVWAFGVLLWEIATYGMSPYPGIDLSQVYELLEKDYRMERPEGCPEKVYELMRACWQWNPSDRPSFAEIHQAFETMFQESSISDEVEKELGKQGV
Description for Ba/F3-BCR-ABL1-WT cells: as §1, §2, §3, §4, §5, §6

Turning to `O=C(Nc1ccc(OC(F)(F)F)cc1)c1cnc(N2CC[C@@H](O)C2)c(-c2ccc[nH]2)c1` [Example 6, (R)-6-(3-Hydroxypyrrolidin-1-yl)-5-(1H-pyrrol-2-yl)-N-(4-(trifluoromethoxy)phenyl)nicotinamide], the IC50 at ABL1 (64-515) [1] came out at 9 nM; with Ba/F3-BCR-ABL1-WT cells it was 4.5 nM; in experiment [2] it was 106 nM; on ABL1 (64-515) [3], 1.3 nM.

For the molecule `O=C(Nc1ccc(OC(F)(F)F)cc1)c1cnc(N2CC[C@@H](O)C2)c(-c2cncs2)c1` [Example 10, (R)-6-(3-Hydroxypyrrolidin-1-yl)-5-(thiazol-5-yl)-N-(4-(trifluoromethoxy)phenyl)nicotinamide], the IC50 at ABL1 (64-515) [1] stood at 5.3 nM; in the experiment with Ba/F3-BCR-ABL1-WT cells, 2.5 nM; in experiment [2], 50 nM; at ABL1 (64-515) [3] it was 0.5 nM.

As for `O=C(Nc1ccc(OC(F)(F)Cl)cc1)c1cnc(N2CC[C@@H](O)C2)c(-c2ccc[nH]2)c1` [Example 22, (R)—N-(4-(Chlorodifluoromethoxy)phenyl)-6-(3-hydroxypyrrolidin-1-yl)-5-(1H-pyrrol-2-yl)nicotinamide], the IC50 on ABL1 (64-515) [1] was 2.4 nM; in the experiment with Ba/F3-BCR-ABL1-WT cells, 0.8 nM; in experiment [2] it was 27 nM; on ABL1 (64-515) [3] it was < 0.13 nM.

In the case of `N#Cc1ccc(-c2cc(C(=O)Nc3ccc(OC(F)(F)F)cc3)cnc2N2CC[C@@H](O)C2)[nH]1` [Example 30, (R)-5-(5-Cyano-1H-pyrrol-2-yl)-6-(3-hydroxypyrrolidin-1-yl)-N-(4-(trifluoromethoxy)phenyl)nicotinamide], the IC50 at ABL1 (64-515) [1] came out at 6 nM; in the experiment with Ba/F3-BCR-ABL1-WT cells, 1.1 nM; in experiment [2], 22 nM; at ABL1 (64-515) [3], 0.7 nM.

`N#Cc1ccc(-c2cc(C(=O)Nc3ccc(OC(F)(F)Cl)cc3)cnc2N2CC[C@@H](O)C2)[nH]1` [Example 45, (R)—N-(4-(Chlorodifluoromethoxy)phenyl)-5-(5-cyano-1H-pyrrol-2-yl)-6-(3-hydroxypyrrolidin-1-yl)nicotinamide]: the IC50 at ABL1 (64-515) [1] was 4 nM; with Ba/F3-BCR-ABL1-WT cells, 0.6 nM; in experiment [2], 13 nM; at ABL1 (64-515) [3], 0.7 nM.

Consider `O=C(Nc1ccc(OC(F)(F)Cl)cc1)c1cnc(N2CCCC3(CCN3)C2)c(-c2ccn[nH]2)c1` (centres unmarked) [Example 61, N-(4-(Chlorodifluoromethoxy)phenyl)-5-(1H-pyrazol-5-yl)-6-(1,6-diazaspiro[3.5]nonan-6-yl)nicotinamide], for which the IC50 was 3 nM on ABL1 (64-515) [1], 49.3 nM in the experiment on Ba/F3-BCR-ABL1-WT cells, 1040 nM in experiment [2] and 4.5 nM on ABL1 (64-515) [3].

Turning to `CC1(O)CN(c2ncc(C(=O)Nc3ccc(OC(F)(F)F)cc3)cc2-c2ncc[nH]2)C1` [Example 69, 6-(3-Hydroxy-3-methylazetidin-1-yl)-5-(1H-imidazol-2-yl)-N-(4-(trifluoromethoxy)phenyl)nicotinamide], the IC50 at ABL1 (64-515) [1] came to 0.2 nM; in the experiment on Ba/F3-BCR-ABL1-WT cells it was 24.3 nM; in experiment [2], 395 nM; on ABL1 (64-515) [3], 0.2 nM.

Regarding `Cc1cn(-c2cc(NC(=O)c3ccc(C)c(Nc4nccc(-c5cccnc5)n4)c3)cc(C(F)(F)F)c2)cn1` [nilotinib], the “time until acquired resistance” value with BCR-ABL1+KCL-22 cells is 18 to 21 days.
